Laboratory results taken from patent US9725449B2, “Tricyclic compounds as anticancer agents” (BRISTOL-MYERS SQUIBB COMPANY, priority 2015, dated 2017).

Molecular target: BRD4 (Homo sapiens, UniProt O60885)
Assay: Time resolved fluorescence resonance energy transfer (TR-FRET) binding assay, bromodomain BRD4
Conditions: one of the FRET assays described; read-out: FRET BRD4 IC50

Row | Compound | IC50 [nM]
1 | [2H]C([2H])([2H])c1nnn(C)c1-c1cnc2c3c(OCC)nccc3n([C@H](c3ccccc3)C3CCOCC3)c2c1 [Example 129, 13-Ethoxy-5-[4-(^2H3)methyl-1-methyl-1H-1,2,3-triazol-5-yl]-8-[(S)-oxan-4-yl(phenyl)methyl]-3,8,12-triazatricyclo[7.4.0.0^2,^7]trideca-1(13),2(7),3,5,9,11-hexaene] | < 1
2 | COCCNc1nccc2c3ncc(-c4c(C)nnn4C)cc3n([C@H](c3ccccc3)C3CCOCC3)c12 [Example 9, 5-(Dimethyl-1H-1,2,3-triazol-5-yl)-N-(2-methoxyethyl)-8-[(S)-oxan-4-yl(phenyl)methyl]-3,8,11-triazatricyclo[7.4.0.0^2,^7]trideca-1(13),2(7),3,5,9,11-hexaen-10-amine] | < 10
3 | CCS(=O)(=O)Nc1ncc(S(C)(=O)=O)c2c1c1ncc(-c3c(C)noc3C)cc1n2[C@H](c1ccccc1)C1CCOCC1 [Example 99, N-[5-(Dimethyl-1,2-oxazol-4-yl)-10-methanesulfonyl-8-[(S)-oxan-4-yl(phenyl)methyl]-3,8,12-triazatricyclo[7.4.0.0^2,^7]trideca-1(13),2(7),3,5,9,11-hexaen-13-yl]ethane-1-sulfonamide] | < 1
4 | [2H]C([2H])([2H])c1nnn(C)c1-c1cnc2c3c(OC)nc(C(C)(C)O)cc3n(C(c3ccccc3)C3CCC(F)(F)CC3)c2c1 (stereo not shown) [Example 346, 2-{8-[(4,4-Difluorocyclohexyl)(phenyl)methyl]-13-methoxy-5-[4-(^2H3)methyl-1-methyl-1H-1,2,3-triazol-5-yl]-3,8,12-triazatricyclo[7.4.0.0^2,^7]trideca-1(13),2(7),3,5,9,11-hexaen-11-yl}propan-2-ol] | < 1
5 | [2H]C([2H])([2H])C(O)(c1cc2c(cn1)c1ncc(-c3c(C)noc3C)cc1n2[C@H](c1ccc(F)cc1)C1CCOCC1)C([2H])([2H])[2H] [Example 224, 2-[5-(Dimethyl-1,2-oxazol-4-yl)-8-[(S)-(4-fluorophenyl)(oxan-4-yl)methyl]-3,8,12-triazatricyclo[7.4.0.0^2,^7]trideca-1(13),2(7),3,5,9,11-hexaen-11-yl](^2H6)propan-2-ol] | < 10
6 | Cc1nnn(C)c1-c1cnc2c3cnc(-c4c(C)nnn4C)nc3n([C@H](c3ccccc3)C3CCOCC3)c2c1 [Example 155, 5,11-Bis(dimethyl-1H-1,2,3-triazol-5-yl)-8-[(S)-oxan-4-yl(phenyl)methyl]-3,8,10,12-tetraazatricyclo[7.4.0.0^2,^7]trideca-1(9),2(7),3,5,10,12-hexaene] | < 10
7 | [2H]C([2H])([2H])c1nnn(C)c1-c1cnc2c3c(OC)ncc(S(C)(=O)=O)c3n(C(c3ncccc3F)C3CCOCC3)c2c1 (stereo not shown) [Example 64, 8-[(3-Fluoropyridin-2-yl)(oxan-4-yl)methyl]-10-methanesulfonyl-13-methoxy-5-[4-(^2H3)methyl-1-methyl-1H-1,2,3-triazol-5-yl]-3,8,12-triazatricyclo[7.4.0.0^2,^7]trideca-1(13),2(7),3,5,9,11-hexaene] | < 1
8 | [2H]C([2H])([2H])c1nnn(C)c1-c1cnc2c3c(OCC4CC4)ncc(S(C)(=O)=O)c3n([C@H](c3ccccc3)C3CCC(F)(F)CC3)c2c1 [Example 94, 13-(Cyclopropylmethoxy)-8-[(S)-(4,4-difluorocyclohexyl)(phenyl)methyl]-10-methanesulfonyl-5-[4-(^2H3)methyl-1-methyl-1H-1,2,3-triazol-5-yl]-3,8,12-triazatricyclo[7.4.0.0^2,^7]trideca-1(13),2(7),3,5,9,11-hexaene] | < 10
9 | CCOP(=O)(CCNc1ccc2c3ncc(-c4c(C)nnn4C)cc3n([C@H](c3ccccc3)C3CCOCC3)c2n1)OCC [Example 215, Diethyl (2-{[5-(dimethyl-1H-1,2,3-triazol-5-yl)-8-[(S)-oxan-4-yl(phenyl)methyl]-3,8,10-triazatricyclo[7.4.0.0^2,^7]trideca-1(9),2(7),3,5,10,12-hexaen-11-yl]amino}ethyl)phosphonate] | < 10
10 | [2H]C([2H])([2H])c1nnn(C)c1-c1cnc2c3ccc(Cl)nc3n(C(c3ncccc3F)C3CCOCC3)c2c1 (stereo not shown) [Example 246, 11-Chloro-8-[(3-fluoropyridin-2-yl)(oxan-4-yl)methyl]-5-[4-(^2H3)methyl-1-methyl-1H-1,2,3-triazol-5-yl]-3,8,10-triazatricyclo[7.4.0.0^2,^7]trideca-1(13),2(7),3,5,9,11-hexaene] | < 10
11 | [2H]C([2H])([2H])c1nnn(C)c1-c1cnc2c3ccc(S(C)(=O)=O)nc3n([C@H](c3ccccc3F)C3CCOCC3)c2c1 [Example 235, 8-[(S)-(2-Fluorophenyl)(oxan-4-yl)methyl]-11-methanesulfonyl-5-[4-(^2H3)methyl-1-methyl-1H-1,2,3-triazol-5-yl]-3,8,10-triazatricyclo[7.4.0.0^2,^7]trideca-1(13),2(7),3,5,9,11-hexaene] | < 10
12 | Cc1nnn(C)c1-c1cnc2c3ccc(-c4c(C)nnn4C)nc3n([C@H](c3ccccc3F)C3CCOCC3)c2c1 [Example 227, 5,11-Bis(dimethyl-1H-1,2,3-triazol-5-yl)-8-[(S)-(2-fluorophenyl)(oxan-4-yl)methyl]-3,8,10-triazatricyclo[7.4.0.0^2,^7]trideca-1(13),2(7),3,5,9,11-hexaene] | < 1
13 | CCCC(c1ncccc1F)n1c2cc(-c3c(C)nnn3C)ncc2c2ncc(C(C)(C)O)cc21 (single isomer, unassigned) [Example 371] | < 10
14 | [2H]C([2H])([2H])c1onc(C)c1-c1cnc2c3c(OC)ncc(S(=O)(=O)C([2H])([2H])[2H])c3n(C(c3ncccc3F)C3CCOCC3)c2c1 (stereo not shown) [Example 67, 8-[(3-Fluoropyridin-2-yl)(oxan-4-yl)methyl]-10-(^2H3)methanesulfonyl-13-methoxy-5-[5-(^2H3)methyl-3-methyl-1,2-oxazol-4-yl]-3,8,12-triazatricyclo[7.4.0.0^2,^7]trideca-1(13),2(7),3,5,9,11-hexaene] | < 1500
15 | COc1cc2c(c(C)n1)c1ncc(-c3c(C)nnn3C)cc1n2[C@H](c1ccccc1)C1CCOCC1 [Example 283, 5-(Dimethyl-1H-1,2,3-triazol-5-yl)-11-methoxy-13-methyl-8-[(S)-oxan-4-yl(phenyl)methyl]-3,8,12-triazatricyclo[7.4.0.0^2,^7]trideca-1(9),2(7),3,5,10,12-hexaene] | < 1
16 | COc1nccc2c3ncc(-c4c(C)nnn4C)cc3n(C(c3ccccc3F)C3CCOCC3)c12 (single isomer, unassigned) [Example 19, 5-(Dimethyl-1H-1,2,3-triazol-5-yl)-8-[(2-fluorophenyl)(oxan-4-yl)methyl]-10-methoxy-3,8,11-triazatricyclo[7.4.0.0^2,^7]trideca-1(13),2(7),3,5,9,11-hexaene] | < 10
17 | [2H]C([2H])([2H])c1nnn(C)c1-c1cnc2c3cnc(N4CCN(C)CC4)cc3n([C@H](c3ccccc3F)C3CCOCC3)c2c1 [Example 244, 8-[(S)-(2-Fluorophenyl)(oxan-4-yl)methyl]-5-[4-(^2H3)methyl-1-methyl-1H-1,2,3-triazol-5-yl]-11-(4-methylpiperazin-1-yl)-3,8,12-triazatricyclo[7.4.0.0^2,^7]trideca-1(13),2(7),3,5,9,11-hexaene] | < 10
18 | COc1nccc2c3ncc(-c4c(C)nnn4C)cc3n(C(c3c(F)cccc3F)C3CCOCC3)c12 (racemic) [Example 27, 8-[(2,6-Difluorophenyl)(oxan-4-yl)methyl]-5-(dimethyl-1H-1,2,3-triazol-5-yl)-10-methoxy-3,8,11-triazatricyclo[7.4.0.0^2,^7]trideca-1(13),2(7),3,5,9,11-hexaene] | < 10
19 | [2H]C([2H])([2H])c1nnn(C)c1-c1cnc2c3ccc(-c4ccc(C(C)(C)O)s4)nc3n([C@H](c3ccccc3)C3CCOCC3)c2c1 [Example 176, 2-(5-{5-[4-(^2H3)Methyl-1-methyl-1H-1,2,3-triazol-5-yl]-8-[(S)-oxan-4-yl(phenyl)methyl]-3,8,10-triazatricyclo[7.4.0.0^2,^7]trideca-1(9),2(7),3,5,10,12-hexaen-11-yl}thiophen-2-yl)propan-2-ol] | < 10
20 | [2H]C([2H])([2H])c1nnn(C)c1-c1cnc2c3ccc(NC)nc3n([C@H](c3ccccc3F)C3CCOCC3)c2c1 [Example 239, 8-[(S)-(2-Fluorophenyl)(oxan-4-yl)methyl]-N-methyl-5-[4-(^2H3)methyl-1-methyl-1H-1,2,3-triazol-5-yl]-3,8,10-triazatricyclo[7.4.0.0^2,^7]trideca-1(13),2(7),3,5,9,11-hexaen-11-amine] | < 10
21 | [2H]C([2H])([2H])c1nnn(C)c1-c1cnc2c3cnc(C(C)(C)O)cc3n([C@H](c3ccccc3F)C3CCOCC3)c2c1 [Example 332] | < 10
22 | Cc1nnn(C)c1-c1cnc2c3ccc(Cl)nc3n([C@H](c3ccccc3)C3CCOCC3)c2c1 [Example 14, 11-Chloro-5-(dimethyl-1H-1,2,3-triazol-5-yl)-8-[(S)-oxan-4-yl(phenyl)methyl]-3,8,10-triazatricyclo[7.4.0.0^2,^7]trideca-1(9),2(7),3,5,10,12-hexaene] | < 10
23 | Cc1nnn(C)c1-c1cnc2c3cnc(Cl)cc3n(C(c3ncccc3F)C3CCOCC3)c2c1 (single isomer, unassigned) [Example 318] | < 10
24 | [2H]C(C)(O)c1ccc2c3ncc(-c4c(C)nnn4C)cc3n([C@H](c3ccccc3)C3CCOCC3)c2n1 (stereo partly drawn) [Example 172, 1-[5-(Dimethyl-1H-1,2,3-triazol-5-yl)-8-[(S)-oxan-4-yl(phenyl)methyl]-3,8,10-triazatricyclo[7.4.0.0^2,^7]trideca-1(9),2(7),3,5,10,12-hexaen-11-yl](1-^2H)ethan-1-ol] | < 10
25 | [2H]C([2H])([2H])c1nnn(C)c1-c1cnc2c3c(NCC(F)(F)F)cncc3n(C(c3ncccc3F)C3CCOCC3)c2c1 (stereo not shown) [Example 303, 8-[(3-Fluoropyridin-2-yl)(oxan-4-yl)methyl]-5-[4-(^2H3)methyl-1-methyl-1H-1,2,3-triazol-5-yl]-N-(2,2,2-trifluoroethyl)-3,8,11-triazatricyclo[7.4.0.0^2,^7]trideca-1(9),2(7),3,5,10,12-hexaen-13-amine] | < 10
